According to US10947242B2, “[1,2,4]triazolo[1,5and#8208;A]pyrimidine compounds as PDE2 inhibitors” (Janssen Pharmaceutica NV, priority 2016, dated 2021):
Read-outs that look alike come from different tables or passages of the source.

Assays:
[1] = target: T1, Human recombinant PDE2A (hPDE2A) (Homo sapiens, UniProt O00408); experiment: In vitro assay PDE2A (SPA, 3H-cGMP hydrolysis); type: biochemical; conditions: for Emax: read-out: hPDE2A Emax
T1 construct: His tag (inferred from metal chelate purification); made in house; host or cells: Sf9 insect cells (baculovirus)

[2] = target: T2, Human recombinant PDE3A (hPDE3A) (Homo sapiens, UniProt Q14432); experiment: In vitro assay PDE3A (SPA, 3H-cAMP hydrolysis); type: biochemical; conditions: for IC50: hPDE3B pIC50, read-out: pIC50 (converted); for Emax: read-out: hPDE3B Emax, read-out: Emax;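 for all read-outs here: the method names PDE3A and the table heading PDE3B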
T2 construct: purchased Scottish Biomedical; host or cells: Sf9 insect cells
Method in brief: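 Human PDE3A, cloned from brain, as partially purified Sf9 lysate. Substrate 0.4 μM cAMP plus [3H]-cAMP (2.4 μCi/ml final) in 50 mM Tris pH 7.8, 8.3 mM MgCl2, 1.7 mM EGTA, 60 min at room temperature, 1% DMSO final. Hydrolysis read by SPA scintillation counting against no-enzyme blanks and DMSO controls.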

[3] = target: T3, Human recombinant PDE10A (hPDE10A) (Homo sapiens, UniProt Q9Y233); experiment: In vitro assay PDE10A, human clone (SPA, 3H-cAMP hydrolysis); type: biochemical
T3 construct: His tag (inferred from metal chelate purification); made in house; host or cells: Sf9 insect cells (baculovirus)
Method in brief: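 Human recombinant PDE10A was expressed in Sf9 cells via baculovirus and incubated with compound in 50 mM Tris pH 7.8, 8.3 mM MgCl2, 1.7 mM EGTA. Substrate was 60 nM cAMP plus 0.008 μCi 3H-cAMP for 60 min at room temperature, read by SPA scintillation counting. Controls used 1% DMSO, and blanks omitted enzyme.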

PDE2A = target: T4, PDE2A (Rattus norvegicus, UniProt Q01062); experiment: PDE2 occupancy by test compounds, ex-vivo autoradiography with [3H]B-17a; type: in vivo, Male Wistar rats; conditions: for receptor occupancy at 10 mg/kg: percentage receptor occupancy, ex-vivo autoradiography, striatum; for ED50: read-out: PDE Occupancy ED50
T4 construct: Twenty μm-thick striatal sections were cut; from tissue; host or cells: rat brain, striatal sections
T4 sequence (Q01062 1-928): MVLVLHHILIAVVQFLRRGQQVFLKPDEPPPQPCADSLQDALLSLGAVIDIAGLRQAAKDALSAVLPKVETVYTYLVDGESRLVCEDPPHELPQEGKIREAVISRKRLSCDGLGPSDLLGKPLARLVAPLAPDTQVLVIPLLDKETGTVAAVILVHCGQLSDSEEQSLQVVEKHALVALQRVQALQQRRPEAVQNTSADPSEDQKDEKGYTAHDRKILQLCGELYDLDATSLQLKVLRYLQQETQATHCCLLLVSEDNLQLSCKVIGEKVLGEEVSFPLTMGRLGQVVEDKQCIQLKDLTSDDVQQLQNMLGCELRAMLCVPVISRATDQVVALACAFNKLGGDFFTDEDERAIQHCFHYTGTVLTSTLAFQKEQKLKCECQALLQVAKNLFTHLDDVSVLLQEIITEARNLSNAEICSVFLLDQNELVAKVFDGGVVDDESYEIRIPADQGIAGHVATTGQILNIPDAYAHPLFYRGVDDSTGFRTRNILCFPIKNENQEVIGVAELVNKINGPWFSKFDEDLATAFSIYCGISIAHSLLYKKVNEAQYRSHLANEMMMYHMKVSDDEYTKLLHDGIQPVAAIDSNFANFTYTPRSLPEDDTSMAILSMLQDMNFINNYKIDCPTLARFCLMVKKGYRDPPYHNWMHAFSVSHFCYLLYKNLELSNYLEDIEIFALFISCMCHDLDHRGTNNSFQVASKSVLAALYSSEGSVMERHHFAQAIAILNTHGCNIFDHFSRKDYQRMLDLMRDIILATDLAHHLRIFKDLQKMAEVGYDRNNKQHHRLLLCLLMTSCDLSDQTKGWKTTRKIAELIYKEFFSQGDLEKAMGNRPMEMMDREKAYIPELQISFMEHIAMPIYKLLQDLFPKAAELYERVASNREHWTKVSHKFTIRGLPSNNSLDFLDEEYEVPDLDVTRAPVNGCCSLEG

[4] = human recombinant PDE2A, 10 μM cGMP substrate, read-out: hPDE2A pIC50 (converted)
[5] = read-out: hPDE2A pIC50 (converted)
[6] = human clone (h), default, read-out: hPDE10A2 Emax
[7] = human clone (h), default, read-out: hPDE10A2 pIC50 (converted)
[8] = hPDE2A pIC50, human recombinant PDE2A, 10 μM cGMP substrate
[9] = human clone by default (no (r) mark), read-out: hPDE10A2 or rPDE10A2 Emax
[10] = human clone by default (no (r) mark), read-out: hPDE10A2 or rPDE10A2 pIC50 (converted)
[11] = route PO (oral), drug dose producing 50% receptor occupancy

T2 sequence (Q14432 whole entry): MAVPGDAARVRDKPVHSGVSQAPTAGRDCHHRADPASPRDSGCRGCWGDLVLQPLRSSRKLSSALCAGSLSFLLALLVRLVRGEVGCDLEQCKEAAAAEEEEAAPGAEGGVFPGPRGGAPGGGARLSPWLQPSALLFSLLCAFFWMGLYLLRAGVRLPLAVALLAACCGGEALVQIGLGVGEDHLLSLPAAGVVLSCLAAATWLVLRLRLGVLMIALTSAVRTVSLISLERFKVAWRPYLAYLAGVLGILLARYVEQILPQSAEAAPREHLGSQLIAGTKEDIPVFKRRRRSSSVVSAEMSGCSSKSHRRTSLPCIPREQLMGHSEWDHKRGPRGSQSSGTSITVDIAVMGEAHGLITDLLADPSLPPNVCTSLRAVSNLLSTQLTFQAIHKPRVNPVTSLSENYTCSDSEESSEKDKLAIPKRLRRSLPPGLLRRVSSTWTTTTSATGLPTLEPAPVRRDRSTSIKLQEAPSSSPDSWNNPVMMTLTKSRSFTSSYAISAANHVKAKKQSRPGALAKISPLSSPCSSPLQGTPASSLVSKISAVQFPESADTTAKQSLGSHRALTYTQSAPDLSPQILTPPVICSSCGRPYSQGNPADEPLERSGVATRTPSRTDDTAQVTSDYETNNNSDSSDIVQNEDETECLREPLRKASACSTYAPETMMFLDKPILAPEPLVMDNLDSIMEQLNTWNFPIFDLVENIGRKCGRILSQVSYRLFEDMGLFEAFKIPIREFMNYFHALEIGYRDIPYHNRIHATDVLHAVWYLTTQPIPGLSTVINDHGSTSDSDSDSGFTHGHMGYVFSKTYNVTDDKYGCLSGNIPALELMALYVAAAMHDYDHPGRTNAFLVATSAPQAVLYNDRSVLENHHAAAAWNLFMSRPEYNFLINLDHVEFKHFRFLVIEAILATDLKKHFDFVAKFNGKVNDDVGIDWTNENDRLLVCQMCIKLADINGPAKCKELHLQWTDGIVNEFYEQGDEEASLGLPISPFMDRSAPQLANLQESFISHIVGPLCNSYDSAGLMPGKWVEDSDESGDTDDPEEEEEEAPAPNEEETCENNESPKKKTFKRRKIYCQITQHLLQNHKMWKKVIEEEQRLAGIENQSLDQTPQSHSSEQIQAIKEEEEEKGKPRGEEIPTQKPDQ
T3 sequence (Q9Y233 267-1055): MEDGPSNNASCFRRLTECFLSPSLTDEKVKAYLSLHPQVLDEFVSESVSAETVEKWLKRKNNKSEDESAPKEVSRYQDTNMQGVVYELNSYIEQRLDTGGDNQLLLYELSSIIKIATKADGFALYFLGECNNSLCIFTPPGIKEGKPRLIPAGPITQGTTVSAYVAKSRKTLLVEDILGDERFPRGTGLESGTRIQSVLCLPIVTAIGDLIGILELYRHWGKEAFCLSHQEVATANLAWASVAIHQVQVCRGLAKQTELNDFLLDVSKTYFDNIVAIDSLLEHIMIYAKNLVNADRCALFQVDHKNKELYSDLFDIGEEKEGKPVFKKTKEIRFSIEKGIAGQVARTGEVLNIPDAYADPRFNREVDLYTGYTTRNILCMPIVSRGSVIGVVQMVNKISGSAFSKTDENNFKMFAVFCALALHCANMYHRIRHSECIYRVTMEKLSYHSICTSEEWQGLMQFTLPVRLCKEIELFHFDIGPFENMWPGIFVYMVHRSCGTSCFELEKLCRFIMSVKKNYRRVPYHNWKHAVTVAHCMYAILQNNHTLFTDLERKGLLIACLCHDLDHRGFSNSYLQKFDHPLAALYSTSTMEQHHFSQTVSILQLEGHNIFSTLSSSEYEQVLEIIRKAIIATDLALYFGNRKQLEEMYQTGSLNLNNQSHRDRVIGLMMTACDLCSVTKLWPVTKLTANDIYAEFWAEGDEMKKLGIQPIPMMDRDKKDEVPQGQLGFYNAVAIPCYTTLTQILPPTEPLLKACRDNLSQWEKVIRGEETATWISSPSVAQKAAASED
T1 sequence (O00408 whole entry): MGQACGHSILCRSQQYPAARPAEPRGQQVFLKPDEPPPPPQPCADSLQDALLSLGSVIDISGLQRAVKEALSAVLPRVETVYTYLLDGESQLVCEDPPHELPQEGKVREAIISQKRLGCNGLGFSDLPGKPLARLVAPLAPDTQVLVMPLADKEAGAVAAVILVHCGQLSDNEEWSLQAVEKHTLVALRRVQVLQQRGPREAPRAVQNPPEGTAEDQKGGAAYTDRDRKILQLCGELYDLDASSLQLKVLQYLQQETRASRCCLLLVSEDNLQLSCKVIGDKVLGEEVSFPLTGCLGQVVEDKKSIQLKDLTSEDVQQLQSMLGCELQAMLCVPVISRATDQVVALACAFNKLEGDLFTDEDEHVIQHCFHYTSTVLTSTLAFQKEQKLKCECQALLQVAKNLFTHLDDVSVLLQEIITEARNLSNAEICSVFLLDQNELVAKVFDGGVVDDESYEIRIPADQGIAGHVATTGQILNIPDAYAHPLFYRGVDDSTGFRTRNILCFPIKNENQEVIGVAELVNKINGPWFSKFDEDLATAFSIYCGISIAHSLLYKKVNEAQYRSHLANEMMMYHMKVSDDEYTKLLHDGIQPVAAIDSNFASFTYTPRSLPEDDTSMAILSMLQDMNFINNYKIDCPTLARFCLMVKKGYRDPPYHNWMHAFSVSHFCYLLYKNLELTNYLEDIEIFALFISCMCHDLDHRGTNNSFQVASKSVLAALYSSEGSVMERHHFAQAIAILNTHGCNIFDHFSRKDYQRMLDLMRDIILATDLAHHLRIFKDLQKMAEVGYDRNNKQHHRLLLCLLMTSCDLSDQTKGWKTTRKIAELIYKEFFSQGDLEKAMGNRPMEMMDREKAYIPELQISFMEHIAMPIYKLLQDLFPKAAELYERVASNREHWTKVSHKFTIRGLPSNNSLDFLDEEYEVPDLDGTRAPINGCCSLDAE

| Compound | IC50 [1, 4] [nM] | Emax ([1]; human recombinant PDE2A) [%] | Emax [1] [%] | IC50 [1, 5] [nM] | IC50 [2] [nM] | Emax [2] [%] | Emax [3, 6] [%] | IC50 [3, 7] [nM] | receptor occupancy at 10 mg/kg (PDE2A; po, route PO (oral)) [%] | melting point [°C] | IC50 ([1]; hPDE2A pIC50) [nM] | IC50 [1, 8] [nM] | Emax [3, 9] [%] | IC50 [3, 10] [nM] | receptor occupancy at 10 mg/kg (PDE2A; route PO (oral)) [%] | ED50 (PDE2A; po) [mg/kg] | ED50 (PDE2A; [11]) [mg/kg] | receptor occupancy at 10 mg/kg (PDE2A; sc, route SC (subcutaneous)) [%] |
| --- | --- | --- | --- | --- | --- | --- | --- | --- | --- | --- | --- | --- | --- | --- | --- | --- | --- | --- |
| COc1cc(C(=O)N2CC[C@@H](C)[C@H](c3cc(C(F)F)nc4ncnn34)C2)ccc1Cl [Compound 130] | 2.45 | 100 | 100 | 2.45 | 1740 | 87 | 96 | 135 | 0 | 193.85 | – | – | – | – | – | – | – | – |
| Cc1cc(C#N)cc(C(=O)N2CC[C@@H](C)[C@H](c3cc(C(F)F)nc4ncnn34)C2)c1 [Compound 131] | – | – | 98 | – | 7760 | 61 | 99 | 40.7 | 0 | 224.39 | 2.45 | 2.45 | – | – | – | – | – | – |
| Cc1cnc(C(F)(F)F)cc1C(=O)N1CC[C@@H](C)[C@H](c2cc(C(F)F)nc3ncnn23)C1 [Compound 52] | 13.8 | 101 | 101 | 13.8 | > 10000 | 22 | 76 | 3020 | 2 | 228.39 | – | – | – | – | – | – | – | – |
| C[C@@H]1CCN(C(=O)c2cn(C)c3ccccc23)C[C@H]1c1cc(C(F)F)nc2ncnn12 [Compound 328] | – | – | 100 | 0.631 | 1480 | 90 | – | – | -18 | 247.48 | – | – | 100 | 61.7 | – | – | – | – |
| Cc1cc(Cl)cc(C(=O)N2CC[C@@H](C)[C@H](c3cc(C(F)F)nc4ncnn34)C2)c1 [Compound 102] | – | – | 100 | – | > 1000 | 44 | 95 | 26.3 | -4 | 215.44 | 0.676 | 0.676 | – | – | – | – | – | – |
| O=C(c1ccc2occc2c1)N1[C@H]2CC[C@H](c3cc(C(F)F)nc4ncnn34)[C@@H]1CC2 [Compound 353] | – | – | 99 | 3.39 | 4790 | 69 | – | – | – | 230.66 | – | – | 94 | 977 | 15 | – | – | – |
| Cn1ccc2cc(C(=O)N3[C@H]4CC[C@H](c5cc(C(F)F)nc6ncnn56)[C@@H]3CC4)ccc21 [Compound 295] | – | – | 101 | 0.49 | 977 | 94 | – | – | – | 178.8 | – | – | 98 | 245 | 71 | 5.63 | – | – |
| Cc1cc(C)cc(C(=O)N2CC[C@@H](C)[C@H](c3cc(C(F)F)nc4ncnn34)C2)c1 [Compound 123] | – | – | 99 | – | 1620 | 87 | 99 | 91.2 | 4 | 203.87 | 1.95 | 1.95 | – | – | – | – | – | – |
| Cc1cc(C(=O)N2CC[C@@H](C)[C@H](c3cc(C(F)F)nc4ncnn34)C2)cc(C(F)(F)F)n1 [Compound 132] | 2.51 | 101 | 101 | 2.51 | > 10000 | 46 | 98 | 200 | – | 116.57 | – | – | – | – | – | – | 5 | 76 |
| COc1cc(C(=O)N2CC[C@@H](C)[C@H](c3cc(C(F)F)nc4ncnn34)C2)cc(Cl)n1 [Compound 108] | 0.912 | 100 | 100 | 0.912 | 2690 | 80 | 99 | 52.5 | 65 | 151.39 | – | – | – | – | – | – | 4.8 | – |
| Cc1cc(C(=O)N2CC[C@@H](C)[C@H](c3cc(C(F)F)nc4ncnn34)C2)cc(C(F)F)n1 [Compound 321] | – | – | 101 | – | 8130 | 45 | – | – | 73 | 137.5 | 2.19 | – | 97 | 309 | – | 3.37 | – | – |
